Results on 4 substances are retold here after article PMC12302718, “Molecular basis for Gβγ-SNARE-mediated inhibition of synaptic vesicle fusion” (The Journal of Biological Chemistry, 2025).

For assay [1], the system named is SNAP25. As to conditions: read-out: Potency in competing with full-length Gβ1γ2 for binding to SNAP25; peptide competition studies; cited from earlier work. The source says: The importance of the N-terminal binding site is supported by the findings presented here as well as by previous findings, both in cell-based assays and in vitro binding studies ([10], [39]).

Assay [2] deals with fully zipped ternary SNARE mimetic. Briefly: Microscale Thermophoresis (MST) affinity analysis, fully zipped SNARE. On the set-up: species or system rat. The conditions noted are these: 250 nM fluorescently labeled (Red-Tris-NTA) Gβ1γ2, SNARE 0.56 nM−19.5 μM, n = 3 technical replicates, read-out: KD, binding to fully zipped SNARE.
In assay [3] the test system is partially zipped and fully zipped ternary SNARE mimetics; tSNARE. Briefly: Peptide array / far-Western blot with ternary SNARE mimetics and tSNARE. The assay is classed as binding, rat. As to conditions: 0.5 μM SNARE protein, far-Western probed for SNAP25. The source says: Binding was quantified as a fraction of the densitometric signal of a positive control peptide corresponding to residues 48 to 62 of rat complexin-1, which interacts with the ternary SNARE complex in co-crystal structures ([41], [51], [52]).
Quantification of (A) Gβ1 and (B) Gγ2 peptides binding to the partially zipped (black striped bars) and fully zipped SNARE (gray bars). Densitometry measurements were normalized to a positive control peptide spot corresponding to a portion of the rat complexin-1 central helix (residues 48–62). Bar graphs represent the mean ± SD of three technical replicates. A, both SNARE mimetics interact with the N-terminal α-helix (H1, red), L1 (orange), B1 (yellow), and B2 (green) of Gβ1. […]
Peptide array synthesis was performed using the ResPep SL peptide synthesizer (Intavis AG) according to standard SPOT synthesis protocols ([44], [70]). […] Spots were detected using HRP-conjugated secondary antibodies as described by the manufacturer. For densitometric analysis comparing Gβ and Gγ isoforms, the signal in individual dots was quantified as a percentage of total density detected on the membrane (Quantity One and Image Lab, Bio Rad, and Image J [Schneider et al., 2012]). […] Quantification of Gβ1 and Gγ2 peptide spots binding to ternary SNARE mimetics was performed by normalizing within each blot to a positive control corresponding to residues 48 to 62 of complexin-1. […]

Assay [4] deals with T1, Gβ1γ2/SNAP25 interaction (Homo sapiens, UniProt P60880).
T1 construct: made in house
The experiment in a line: Alphascreen competition-binding assay (peptides vs full-length Gβ1γ2/SNAP25). As to conditions: read-out: IC50, competition of SNAP25 C-terminal peptide with full-length SNAP25 for binding to Gβ1γ2, 95% CI: 1.27–2.70 μM, n = 21 technical replicates. An excerpt:
Proximity of Alphascreen beads due to Gβ1γ2/SNAP25 interactions produces a luminescent signal. […] A value of 100% was assigned to the average of all conditions tested containing only DMSO as a positive control. The data points correspond to the mean ± SD percentage of positive control luminescence (n = 3 technical replicates). Data were fitted with a four-parameter non-linear regression model in GraphPad Prism to obtain IC50 values for each peptide (Table 1).
Alphascreen luminescence measurements were performed as described ([33]). […] An EC80 concentration of 180 nM purified His6-Gβ1γ2 was made in assay buffer. Peptide stocks in DMSO were spotted onto 384-well white OptiPlates (PerkinElmer Life Sciences) at concentration ranges of 1 nM to 100 μM using a Labcyte Echo 555 Omics acoustic liquid handler (Labcyte), with DMSO being back-added to a final concentration of 0.1%. […] Subsequent to incubation while shaking for an additional 5 min, 10 μl of Alphascreen Histidine Detection Kit (nickel chelate) acceptor beads were added to a final concentration of 20 μg/ml in assay buffer. […] After being spun down briefly to settle all fluid at the bottom of the well, plates were incubated for an additional 1 h at 27 °C before being read in the EnSpire. […] IC50 concentrations for each peptide were determined by sigmoidal dose-response curve-fitting with variable slope.

pIC50, pKd: −log10 of the molar value. Where no end group is shown, it is not given here.

T1 sequence (P60880 whole entry): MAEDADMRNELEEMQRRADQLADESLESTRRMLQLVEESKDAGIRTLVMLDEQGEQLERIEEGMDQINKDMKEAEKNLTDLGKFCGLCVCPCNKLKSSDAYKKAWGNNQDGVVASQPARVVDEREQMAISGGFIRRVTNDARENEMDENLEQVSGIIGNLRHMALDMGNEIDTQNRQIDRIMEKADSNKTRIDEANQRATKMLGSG

As to “Gβ1 residues 328 to 337: peptide corresponding to Gβ1 residues 328 to 337, from ref 39 (ATGSWDSFLK; UniProt P62873 328-337, looked up, fragment)”, the pIC50 in assay [1] is around 4.55.

On to “Gβ1γ2: His-tagged soluble Gβ1γ2 (C68S) heterodimer purified from Sf9 cells”, for which the pKd in assay [2] was below 4.89.

For the substance “Gγ2 peptide 19: 15-mer Gγ2 array peptide number 19, membrane-coupled (PASENPFREKKFFCA; also: C-terminus coupled to the membrane)”, the “Binding pattern, tSNARE versus ternary SNARE mimetics” value in assay [3] is listed as “bound to tSNARE but not ternary SNARE”.

For TRIDEANQRATKMLGSG, the pIC50 in assay [4] was 5.74.
